Data taken from US20260125374A1, “PI3K-ALPHA INHIBITORS AND METHODS OF MAKING AND USING THE SAME” (Relay Therapeutics, Inc., priority 2021, published 2026).
In brackets after ≈: the same amount, converted by molar mass. Read-outs that look alike come from different tables or passages of the source.

How the values were obtained:
[1] = Solubility study at 37° C. (buffer, water, bio-relevant media, MeOH/DCM); assay type: physicochemical
Experimental: In addition, residual solids were checked by chiral HPLC to confirm whether racemization occurs.
Accurate 4 mg of I-1 Form A, 5.13 mg of I-3 Form A, 4.63 mg of I-4 Form A was weighed into a 8 mL glass vial, respectively. 2 mL of solubility medium was added. The salt amount used is equivalent to 4 mg anhydrous free form. Obtained suspensions/solutions were stirred at 37° C. at 400 rpm for 2 hours and 24 hours and then centrifuged at 37° C. at 14,000 rpm for 5 min. Supernatants were analyzed by UPLC and PH meter for solubility and pH value, respectively. Residual solids (wet cakes) were characterized by XRPD to determine physical form and then analyzed by HPLC for chiral purity.

[2] = Salt screening (XRPD, chiral purity of hits); assay type: physicochemical
Procedure, shortened: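 About 50 mg of I-1 Form A is stirred with 1.0 equivalent of counter ion in MeOH, acetone or IPAc at 50 °C for 2 h, then at 25 °C for at least 12 h. The screen covers 23 counter ions/coformers in about 70 experiments, using slurry, slow evaporation or anti-solvent addition. Solids are centrifuged off and analysed by XRPD.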

[3] = FaSSIF-V1, pH 6.5, 2 hours, listed as I-1 Form A
[4] = FaSSIF-V1, pH 6.5, 24 hours, listed as I-1 Form A
[5] = FeSSIF-V1, pH 5.0, 24 hours, listed as I-1 Form A
[6] = SGF, pH 2.0, 24 hours, listed as I-1 Form A
[7] = Water, 24 hours, listed as I-1 Form A
[8] = pH 2, HCl, 24 hours, listed as I-1 Form A

N#Cc1c(-c2cc(NC(=O)c3cc(F)cc(C(F)(F)F)c3)c3c(c2)C(=O)N[C@H]3c2cc(F)ccc2Cl)ccc2ncnn12 [Compound I-1, (R)-N-(3-(2-chloro-5-fluorophenyl)-6-(5-cyano-[1,2,4]triazolo[1,5-a]pyridin-6-yl)-1-oxoisoindolin-4-yl)-3-fluoro-5-(trifluoromethyl)benzamide]
Chiral purity [1, 3]: purity: 97.7%) | Solubility [1, 3]: 4.5 μg/mL(chiral | Chiral purity ([1]; FaSSIF-V1, pH 6.5, 24 hours): (chiral purity: 97.7%) | Chiral purity (solids) [1, 4]: 98.9%) | Solubility [1, 4]: 11.9 µg/mL (≈ 19.5 µM) | pH of supernatant [1, 4]: 6.45 | Solubility ([1]; FeSSIF-V1, pH 5.0, 2 hours, listed as I-1 Form A): 20.5 µg/mL (≈ 33.7 µM) | Chiral purity (solids) [1, 5]: 85.7%) | Solubility [1, 5]: 40.6 µg/mL (≈ 66.7 µM) | pH of supernatant [1, 5]: 4.87 | solubility at 2 h ([1]; MeOH/DCM (1:2, v/v), 37 °C, organic solvent or mixture, thermodynamic from solid, MeOH/DCM (1:2, v/v), 2 hours): > 145 mg/mL | solubility at 24 h ([1]; MeOH/DCM (1:2, v/v), 37 °C, organic solvent or mixture, thermodynamic from solid, MeOH/DCM (1:2, v/v), 24 hours): > 145 mg/mL | Solubility ([1]; MeOH/DCM (1:2, v/v), 37 °C, organic solvent or mixture, thermodynamic from solid, read-out: solubility in MeOH/DCM (1:2, v/v)): > 145000 µg/mL | Solubility ([1]; SGF, pH 2.0, 2 hours, listed as I-1 Form A): 11.2 µg/mL (≈ 18.4 µM) | Chiral purity (solids) [1, 6]: 98.9%) | Solubility [1, 6]: 6.4 µg/mL (≈ 10.5 µM) | pH of supernatant [1, 6]: 2.04 | Solubility ([1]; Water, 2 hours, LOQ: 0.5 μg/mL): <LOQ | Solubility ([1]; Water, 24 hours, LOQ: 0.5 μg/mL): LOQ | Chiral purity (solids) [1, 7]: 98.9%) | pH of supernatant [1, 7]: 7.50 | Solubility ([1]; pH 2, HCl, 2 hours, LOQ: 0.5 μg/mL): <LOQ | Solubility ([1]; pH 2, HCl, 24 hours, LOQ: 0.5 μg/mL): LOQ | Chiral purity (solids) [1, 8]: 98.9%) | pH of supernatant [1, 8]: 2.03 | Solubility ([1]; pH 2.0 HCl buffer solution, 37 °C, pH 2, aqueous buffer, thermodynamic from solid, solubility in pH 2 HCl buffer solution, 2 h and 24 h, LOQ=0.5 μg/mL): < 0.5 µg/mL | Solubility ([1]; water, 37 °C, water, thermodynamic from solid, 2 h and 24 h, LOQ=0.5 μg/mL, read-out: solubility in pure water): < 0.5 µg/mL | Salt screening result (slurry crystallization) ([2]; 1.0 equiv. HCl, Isopropyl acetate (second block of table)): clear solution | Salt screening result (slurry crystallization) ([2]; 1.0 equiv. HCl, MeOH): − (I-1 Form A) (Free form, counter ions, or physical mixtures) | Salt screening result (slurry crystallization) ([2]; 1.0 equiv. Hydrobromic acid, Acetone): thin suspension | Salt screening result (anti-solvent) ([2]; 1.0 equiv. Hydrobromic acid, Acetone/MTBE): thin suspension | Salt screening result (anti-solvent) ([2]; 1.0 equiv. Hydrobromic acid, IPAc/MTBE): thin suspension | Salt screening result (slurry crystallization) ([2]; 1.0 equiv. Hydrobromic acid, Isopropyl acetate): clear solution | Salt screening result (slurry crystallization) ([2]; 1.0 equiv. Hydrobromic acid, MeOH): − (I-1 Form A) (Free form, counter ions, or physical mixtures) | Salt screening result (slurry crystallization) ([2]; 1.0 equiv. L-aspartic acid, Acetone): − (physical mixtures (Free form, counter ions, or physical mixtures) | Salt screening result (slurry crystallization) ([2]; 1.0 equiv. L-aspartic acid, Isopropyl acetate): − (physical mixtures (Free form, counter ions, or physical mixtures) | Salt screening result (slurry crystallization) ([2]; 1.0 equiv. L-aspartic acid, MeOH): − (physical mixtures (Free form, counter ions, or physical mixtures) | Salt screening result (slurry crystallization) ([2]; 1.0 equiv. L-glutamic acid, Acetone): − (physical mixtures (Free form, counter ions, or physical mixtures) | Salt screening result (slurry crystallization) ([2]; 1.0 equiv. L-glutamic acid, Isopropyl acetate): − (physical mixtures (Free form, counter ions, or physical mixtures) | Salt screening result (slurry crystallization) ([2]; 1.0 equiv. L-glutamic acid, MeOH): − (physical mixtures (Free form, counter ions, or physical mixtures) | Salt screening result (slurry crystallization) ([2]; 1.0 equiv. L-malic acid, Acetone): thin suspension | Salt screening result (anti-solvent) ([2]; 1.0 equiv. L-malic acid, Acetone/MTBE): −(I-1 Form B) (Free form, counter ions, or physical mixtures) | Salt screening result (slurry crystallization) ([2]; 1.0 equiv. L-malic acid, Isopropyl acetate): − (I-1 Form A) (Free form, counter ions, or physical mixtures) | Salt screening result (slurry crystallization) ([2]; 1.0 equiv. L-malic acid, MeOH): − (I-1 Form A) (Free form, counter ions, or physical mixtures) | Salt screening result (slurry crystallization) ([2]; 1.0 equiv. L-tartaric acid, Acetone): thin suspension | Salt screening result (anti-solvent) ([2]; 1.0 equiv. L-tartaric acid, Acetone/MTBE): −(I-1 Form B) (Free form, counter ions, or physical mixtures) | Salt screening result (slurry crystallization) ([2]; 1.0 equiv. L-tartaric acid, Isopropyl acetate): − (I-1 Form A) (Free form, counter ions, or physical mixtures) | Salt screening result (slurry crystallization) ([2]; 1.0 equiv. L-tartaric acid, MeOH): − (I-1 Form A) (Free form, counter ions, or physical mixtures) | Salt screening result (slurry crystallization) ([2]; 1.0 equiv. citric acid, Acetone): thin suspension | Salt screening result (anti-solvent) ([2]; 1.0 equiv. citric acid, Acetone/MTBE): −(I-1 Form B) (Free form, counter ions, or physical mixtures) | Salt screening result (slurry crystallization) ([2]; 1.0 equiv. citric acid, Isopropyl acetate): − (I-1 Form A) (Free form, counter ions, or physical mixtures) | Salt screening result (slurry crystallization) ([2]; 1.0 equiv. citric acid, MeOH): − (I-1 Form A) (Free form, counter ions, or physical mixtures) | Salt screening result (slurry crystallization) ([2]; 1.0 equiv. fumaric acid, Acetone): − (physical mixtures (Free form, counter ions, or physical mixtures) | Salt screening result (slurry crystallization) ([2]; 1.0 equiv. fumaric acid, Isopropyl acetate): − (physical mixtures (Free form, counter ions, or physical mixtures) | Salt screening result (slurry crystallization) ([2]; 1.0 equiv. fumaric acid, MeOH): − (I-1 Form A) (Free form, counter ions, or physical mixtures) | Salt screening result (slurry crystallization) ([2]; 1.0 equiv. gentisic acid, Acetone): thin suspension | Salt screening result (anti-solvent) ([2]; 1.0 equiv. gentisic acid, Acetone/MTBE): −(I-1 Form B) (Free form, counter ions, or physical mixtures) | Salt screening result (slurry crystallization) ([2]; 1.0 equiv. gentisic acid, Isopropyl acetate): − (I-1 Form A) (Free form, counter ions, or physical mixtures) | Salt screening result (slurry crystallization) ([2]; 1.0 equiv. gentisic acid, MeOH): − (I-1 Form A) (Free form, counter ions, or physical mixtures) | Salt screening result (slurry crystallization) ([2]; 1.0 equiv. isonicotinamide, Acetone): thin suspension | Salt screening result (anti-solvent) ([2]; 1.0 equiv. isonicotinamide, Acetone/MTBE): −(I-1 Form B) (Free form, counter ions, or physical mixtures) | Salt screening result (slurry crystallization) ([2]; 1.0 equiv. isonicotinamide, Isopropyl acetate): − (physical mixtures (Free form, counter ions, or physical mixtures) | Salt screening result (slurry crystallization) ([2]; 1.0 equiv. isonicotinamide, MeOH): − (I-1 Form A) (Free form, counter ions, or physical mixtures) | Salt screening result (slurry crystallization) ([2]; 1.0 equiv. maleic acid, Acetone): thin suspension | Salt screening result (anti-solvent) ([2]; 1.0 equiv. maleic acid, Acetone/MTBE): −(I-1 Form B) (Free form, counter ions, or physical mixtures) | Salt screening result (slurry crystallization) ([2]; 1.0 equiv. maleic acid, Isopropyl acetate): − (I-1 Form A) (Free form, counter ions, or physical mixtures) | Salt screening result (slurry crystallization) ([2]; 1.0 equiv. maleic acid, MeOH): − (I-1 Form A) (Free form, counter ions, or physical mixtures) | Salt screening result (slurry crystallization) ([2]; 1.0 equiv. malonic acid, Acetone): thin suspension | Salt screening result (anti-solvent) ([2]; 1.0 equiv. malonic acid, Acetone/MTBE): −(I-1 Form B) (Free form, counter ions, or physical mixtures) | Salt screening result (slurry crystallization) ([2]; 1.0 equiv. malonic acid, Isopropyl acetate): − (I-1 Form A) (Free form, counter ions, or physical mixtures) | Salt screening result (slurry crystallization) ([2]; 1.0 equiv. malonic acid, MeOH): − (I-1 Form A) (Free form, counter ions, or physical mixtures) | Salt screening result (slurry crystallization) ([2]; 1.0 equiv. methanesulfonic acid, Acetone): thin suspension
